Data: paper PMC7688046 (ACS Pharmacology & Translational Science, 2020)

Key:
[1] = molecular target: SARS-CoV-2 spike protein RBD (RBD-Fc) binding to human ACE2 (ACE2-His-Avi) (Homo sapiens, UniProt Q9BYF1); test: biochemical; set-up: species or system human ACE2 / SARS-CoV-2 spike
[2] = test system: streptavidin donor beads / biotin-BSA acceptor beads; conditions: primary counterscreen
[3] = test system: biotinylated rabbit IgG (Fc-protein A and streptavidin–biotin interactions); test: Biotin-IgG counterassay; conditions: cherry-pick hit confirmation
[4] = test system: ACE2; conditions: at current writing; ref NCATS OpenData Portal; cited from earlier work
[5] = test system: cytopathic effects (CPE); conditions: at current writing; ref NCATS OpenData Portal; cited from earlier work
[6] = molecular target: RBD-Fc interaction with ACE2-His-Avi (Homo sapiens, UniProt Q9BYF1); type: binding, human ACE2 / SARS-CoV-2 spike
Sequence of RBD-Fc interaction with ACE2-His-Avi (Q9BYF1 18-740): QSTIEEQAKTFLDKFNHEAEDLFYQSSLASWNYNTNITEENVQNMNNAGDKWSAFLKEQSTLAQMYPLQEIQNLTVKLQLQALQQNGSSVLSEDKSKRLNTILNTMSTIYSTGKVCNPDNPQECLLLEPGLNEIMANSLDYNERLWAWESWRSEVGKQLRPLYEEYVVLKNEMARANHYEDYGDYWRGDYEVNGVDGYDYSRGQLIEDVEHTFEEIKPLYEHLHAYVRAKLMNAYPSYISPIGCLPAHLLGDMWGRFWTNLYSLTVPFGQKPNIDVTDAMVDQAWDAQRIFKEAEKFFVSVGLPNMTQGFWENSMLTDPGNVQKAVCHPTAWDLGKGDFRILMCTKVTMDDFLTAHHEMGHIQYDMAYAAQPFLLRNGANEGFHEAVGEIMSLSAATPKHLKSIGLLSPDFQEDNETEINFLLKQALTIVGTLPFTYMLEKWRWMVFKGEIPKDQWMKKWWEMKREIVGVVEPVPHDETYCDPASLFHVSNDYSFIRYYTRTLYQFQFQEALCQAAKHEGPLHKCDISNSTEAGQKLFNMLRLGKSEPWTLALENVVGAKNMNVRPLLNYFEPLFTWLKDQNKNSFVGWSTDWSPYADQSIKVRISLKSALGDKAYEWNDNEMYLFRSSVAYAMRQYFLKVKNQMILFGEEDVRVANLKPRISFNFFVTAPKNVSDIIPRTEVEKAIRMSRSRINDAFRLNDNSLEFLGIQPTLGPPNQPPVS

Sequence of SARS-CoV-2 spike protein RBD (RBD-Fc) binding to human ACE2 (ACE2-His-Avi) (Q9BYF1 18-740): as above

With CCOC(=O)[C@H](CCc1ccccc1)N[C@@H](C)C(=O)N1Cc2cc(OC)c(OC)cc2C[C@H]1C(=O)O [moexipril] the “ACE2–RBD binding inhibition in the primary AlphaLISA screen” value (from here on “ACE2–RBD binding inhibition”) [1] was “none showed ACE2–RBD binding inhibition”.

With NCCCC[C@H](N[C@@H](CCc1ccccc1)C(=O)O)C(=O)N1CCC[C@H]1C(=O)O [lisinopril] the “ACE2–RBD binding inhibition” value [1] was “none showed ACE2–RBD binding inhibition”.

In the case of CCC(CC)COC(=O)[C@H](C)N[P@](=O)(OC[C@H]1O[C@@](C#N)(c2ccc3c(N)ncnn23)[C@H](O)[C@@H]1O)Oc1ccccc1 [remdesivir], the “ACE2–RBD binding inhibition” value [1] is reported as “no significant activity” and the “activity in the TruHits counterscreen” value [2] is reported as “no significant activity”.

For CC(C)(O/N=C(\C(=O)N[C@@H]1C(=O)N2C(C(=O)[O-])=C(C[n+]3ccccc3)CS[C@H]12)c1csc(N)n1)C(=O)O [ceftazidime], the “ACE2–RBD binding inhibition” value [1] was “no significant activity” and the “activity in the TruHits counterscreen” value [2] was “no significant activity”.

For O=C(O[C@@H]1O[C@@H]2COC(=O)c3cc(O)c(O)c(O)c3-c3c(cc(O)c(O)c3O)C(=O)O[C@H]([C@H]1O)[C@@H]2O)c1cc(O)c(O)c(O)c1 [Corilagin], the IC50 [1] is given as 5.5 µM, the “activity in biotin-IgG counter assay” value [3] is given as “not the biotin-IgG counter assay” and the “activity in the ACE2 enzymatic assay” value [4] is given as “weak activity”. For the same molecule, the “activity in blocking cytopathic effects (CPE)” value [5] was “no activity”.

In the case of ACE2-His, the “competition for ACE2–RBD binding, AlphaLISA signal” value [6] is reported as “dose-dependent signal loss”.

For CCOC(=O)[C@H](CCc1ccccc1)N[C@@H](C)C(=O)N1CCC[C@H]1C(=O)O [enalapril], the “ACE2–RBD binding inhibition” value [1] was “none showed ACE2–RBD binding inhibition”.
